We go through three compounds from article PMC5640644, “HDX reveals the conformational dynamics of DNA sequence specific VDR co-activator interactions” (Nature Communications, 2017).

The experiment deals with T1, VDRRXRα heterodimer (Homo sapiens, UniProt P11473, DEL151-190).
T1 construct: Full-length WT His-hVDR (Δ (151–190)) and WT Flag-h RXRα were expressed in a baculovirus system; His; made in house; host or cells: baculovirus system (VDR, RXRα); Escherichia coli BL21 DE3 (SRC1 RID)
T1 sequence (P11473 with tags, fused parts or gaps DEL151-190): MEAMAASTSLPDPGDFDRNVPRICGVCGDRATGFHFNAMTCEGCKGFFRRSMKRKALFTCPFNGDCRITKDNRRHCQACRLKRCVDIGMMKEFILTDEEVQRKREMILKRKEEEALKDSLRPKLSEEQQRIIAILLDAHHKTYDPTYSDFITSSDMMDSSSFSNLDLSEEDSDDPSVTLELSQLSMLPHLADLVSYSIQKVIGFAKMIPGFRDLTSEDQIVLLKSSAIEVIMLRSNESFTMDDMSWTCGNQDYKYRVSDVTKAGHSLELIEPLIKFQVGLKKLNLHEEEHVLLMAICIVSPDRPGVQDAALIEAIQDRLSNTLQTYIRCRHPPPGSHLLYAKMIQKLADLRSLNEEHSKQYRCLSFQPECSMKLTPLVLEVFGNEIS
T1 sequence (P19793 1-462 partner): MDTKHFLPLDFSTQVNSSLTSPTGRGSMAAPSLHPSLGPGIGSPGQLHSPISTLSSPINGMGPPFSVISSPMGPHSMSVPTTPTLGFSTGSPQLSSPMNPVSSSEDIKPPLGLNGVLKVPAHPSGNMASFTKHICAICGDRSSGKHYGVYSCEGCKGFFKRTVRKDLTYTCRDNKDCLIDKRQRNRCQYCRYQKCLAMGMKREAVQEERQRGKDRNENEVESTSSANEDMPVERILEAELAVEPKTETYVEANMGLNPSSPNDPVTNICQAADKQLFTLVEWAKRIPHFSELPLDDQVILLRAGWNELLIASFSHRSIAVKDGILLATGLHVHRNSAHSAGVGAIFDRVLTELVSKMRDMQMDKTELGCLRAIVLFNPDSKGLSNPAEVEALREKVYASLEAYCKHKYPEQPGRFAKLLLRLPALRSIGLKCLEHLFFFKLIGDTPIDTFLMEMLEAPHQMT
T1 sequence (Q15788 627-786 partner limits assumed): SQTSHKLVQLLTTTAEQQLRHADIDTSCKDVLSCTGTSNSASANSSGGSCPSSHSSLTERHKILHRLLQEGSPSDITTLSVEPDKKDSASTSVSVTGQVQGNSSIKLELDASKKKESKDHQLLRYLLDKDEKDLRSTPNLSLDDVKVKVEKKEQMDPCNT
As to the kind of experiment: Differential HDX-MS of liganded full-length VDRRXRα heterodimer with DNA VBS and SRC1 RID. The settings on record: for decrease in solvent exchange within H12 of VDR upon SRC1 RID binding: ligand-heterodimer-DR3 or -DR3 half-site complex (both alike), aa412−419 for Cmpd1; for ΔΔHDX in the VDR hinge region (aa97−108): ΔHDX heterodimer:agonist ± DR3 minus ΔHDX heterodimer:agonist ± DR3 half-site. It is filed as binding. As for the experimental part:
The final protein buffer was 50 mM Tris (pH 8.0), 150 mM NaCl, 10% glycerol and 2 mM DTT.
The DR3 VBS 5′-[…]-3′, DR3 half-site VBS 5′-[…]-3′, BGLAP VBS 5′-[…]-3′, BGLAP* VBS 5′-[…]-3′ and TRPV6 VBS 5′-[…]-3′ duplex oligonucleotides were purchased from Integrated DNA Technologies. […] SRC1 RID was added in a 2× molar ratio to heterodimer, and oligonucleotide (VBS) was mixed with the protein complex as needed (1.5× molar ratio). […]
Solution-phase amide HDX experiments were carried out with a fully automated system (CTC HTS PAL, LEAP Technologies, Carrboro, NC; housed inside a 4 °C cabinet) as follows.
HDX-MS analysis: 10 μM of the apo protein was mixed with 1:10 molar excess of ligand and incubated for 2 h at 4 °C for complex formation before subjecting them to HDX analysis. For the differential HDX experiments, 5 μl of either the apo or the liganded protein complex with DNA and SRC1 RID were mixed with 20 μl of D2O-containing HDX buffer (50 mM Tris, pH 8.0, 150 mM NaCl, and 2 mM DTT) and incubated at 4 °C for 0 s, 10 s, 30 s, 60 s, 300 s, 900 s, or 3,600 s. Following on-exchange, unwanted forward-exchange or back-exchange was minimized and the protein was denatured by the addition of 25 μl of a quench solution (1% v/v TFA in 3 M urea and 50 mM TCEP). Samples were then immediately passed through an immobilized pepsin column (prepared in house) at 50 μl min-1 (0.1% v/v TFA, 15 °C) and the resulting peptides were trapped and desalted on a 1.0 mm × 10 mm C8 trap column (Hypersil Gold, Thermo Fisher, Grand Island, NY). The bound peptides were then gradient-eluted (5–50% CH3CN v/v and 0.3% v/v formic acid) across a 1.0 mm × 50 mm C18 separation column (Hypersil Gold, Thermo Fisher, Grand Island, NY) for 6 min. Sample handling and peptide separation were conducted at 4 °C. The eluted peptides were then subjected to electrospray ionization directly coupled to a high resolution Orbitrap mass spectrometer (LTQ Orbitrap XL with ETD, Q Exactive, or Exactive, Thermo Fisher Scientific, San Jose, CA). Each HDX experiment was carried out in triplicate with a single preparation of each protein-ligand complex. The intensity weighted mean m/z centroid value of each peptide envelope was calculated and subsequently converted into a percentage of deuterium incorporation. This is accomplished by determining the observed averages of the undeuterated and fully deuterated spectra using the conventional formula described elsewhere. […] Statistical significance for the differential HDX data is determined by an unpaired t-test for each time point, a procedure that is integrated into the HDX Workbench software.
Data Statistics: Deuterium uptake for each peptide is calculated as the average of % D for all on-exchange time points and the difference in average %D values between the apo and ligand bound samples is presented as a heat map with a color code given at the bottom of the figure (warm colors for deprotection and cool colors for protection). […] Peptides with non-significant changes between the two states are colored gray. The exchange at the first two residues for any given peptide is not colored.

[1] abbreviates: both ligand-heterodimer-VBS complexes (DR3, DR3 half-site).

In the case of `CCc1cc(C(CC)(CC)c2ccc(OCC(O)C(C)(C)C)c(C)c2)sc1C(=O)N[C@@H](C)C(=O)O` (single isomer, unassigned) [Cmpd2, L-2-[(5-{1-Ethyl-1-[4-(2-hydroxy-3,3-dimethyl-butoxy)-3-methyl-phenyl]-propyl}-3-ethyl-thiophene-2-carbonyl)-amino]-propionic acid], the “decrease in solvent exchange within H12 of VDR upon SRC1 RID binding” value is listed as ~ 20% and the “ΔΔHDX in the VDR hinge region (aa97−108)” value turned out to be 19%. In addition, under setting [1], the “decreased exchange for H1 of VDR upon SRC1 RID interaction” value is recorded as ~ 6% and the “decreased exchange for H3 of VDR upon SRC1 RID interaction” value was ~ 9%.
As for `CCC(CC)(c1ccc(OCC(O)C(C)(C)C)c(C)c1)c1ccc(C(=O)N(C)CC(=O)O)c(C)c1` (stereo not drawn) [Cmpd1, [(4-{1-ethyl-1-[4-(2-hydroxy-3,3-dimethyl-butoxy)-3-methyl-phenyl]-propyl}-2-methyl-benzoyl)-methyl-amino]-acetic acid], the “decrease in solvent exchange within H12 of VDR upon SRC1 RID binding” value is ~ 11% and the “ΔΔHDX in the VDR hinge region (aa97−108)” value stood at 21%.
As for `CCC(CC)(c1ccc(OCC(O)C(C)(C)C)c(C)c1)c1cc(C)c(C(=O)Nc2nnn[nH]2)s1` (stereo not drawn) [Cmpd3, 3'-[4-(2-hydroxy-3,3-dimethylbutoxy)-3-methylphenyl]-3'-[5-(tetrazol-5-yl-aminocarbonyl)-4-methylthiophen-2-yl]pentane], where the note is “ligand-bound heterodimer, not observed upon binding the BGLAP VBS”, the “further reduction in deuterium exchange of VDR AF2 H12 upon binding of TRPV6 VBS” value is recorded as ~ 13%. Moreover, the “protection to solvent exchange at VDR AF2 surface upon SRC1 RID interaction” value is, setting by setting: (ligand-heterodimer-BGLAP VBS complex) ~ 20%; (ligand-heterodimer-TRPV6 VBS complex) ~ 9%.
